How the values were obtained:
caspase 3 = test: ASK1-induced caspase 3 activity assay in BAEC (Ac-DEVD-AMC substrate); format: cell-based, Bovine; settings: 100 μM inhibitor in lysate assay
Procedure: Caspase 3 activity assay: Caspase 3 activity was measured with a Caspase 3 fluorescence kit (Sigma) according to the Manufacturer's protocol. Briefly, BAEC were harvested in Caspase 3 lysis buffer (25 mM Hepes, pH 7.4, 5 mM CHAPS, 5 mM DTT) and incubated on ice for 15-20 min followed by a centrifugation at 14,000× g for 10-15 min at 4° C. For each reaction, 5 μl (200 μg) of cell lysate was incubated with 200 μl of 16 μM Caspase 3 peptide substrate acetyl-ASP-Glu-Val-Asp-7 amido-4-methylcoumarin (Ac-DEVD-AMC) in the assay buffer (25 mM Hepes, pH 7.4, 5 mM EDTA, 0.1% CHAPS, 5 mM DTT) in the presence or absence of 100 μM Caspase 3 inhibitor (Ac-DEVD-CHO). The reaction was incubated in the dark for 1-1.5 h and fluorescence was measured in a fluorescence plate reader. The measured fluorescence was used as an arbitrary unit.
Then the effects. of Trx on ASK1-induced caspase 3 activation, a hallmark of the execution of apoptotic cell death (Green D R. Apoptotic pathways: paper wraps stone blunts scissors. Cell. 102:1-4 (2000); Hengartner MO. The biochemistry of apoptosis. Nature. 407:770-6 2000)) was examined. Caspase 3 activity was determined by an in vitro assay using peptide substrate acetyl-ASP-Glu-Val-Asp-7 amido-4-methylcounarin (Ac-DEVD-AMC). Overexpression of ASK1 in BAEC increased caspase 3 activity compared to the control cells (FIG. 6B).

adult rat cardiomyocytes = test: Twitch amplitude of field-stimulated adult rat cardiac myocytes; settings: 100 μM H2O2, field stimulated at 1 Hz, n=15
From the text: Phosphorylation of endogenous cTnT in cardiomyocytes was examined by in vivo labeling with ^32P-orthophosphate and cell lysates were immunoprecipitated with anti-cTnT followed by SDS-PAGE/autoradiography.

[1] = tested on: neonatal rat cardiomyocytes; settings: 100 μM H2O2, 15 min post-treatment
Procedure: Primary cultures of neonatal rat cardiac ventricular myocytes were prepared by the method of Simpson and Savion (Simpson P et al. Differentiation of rat myocytes in single cell cultures with and without proliferating nonmyocardial cells. Cross-striations, ultrastructure, and chronotropic response to isoproterenol. Circ Res. 50:101-16 (1982)) with minor modifications. Briefly, the ventricles were excised from 1-2 day old Wistar rats under ethyl ether anesthesia and minced with scissors in Ca^2+ free Krebs-Henseleit buffer (KHB) solution. The cells were dispersed by adding KHB containing 0.05% trypsin and 0.05% collagenase type II. They were stirred with the use of a small magnetic stirrer bar at 37° C. for 10 min, and the supernatants were saved in cold DMEM containing 10% fetal calf serum (complete DMEM), and digestion was repeated four times. The resultant cell suspension was centrifuged, and the pellet was resuspended in the medium. The cells were plated onto culture flasks for 1.5 hours to remove non-cardiac myocytes. The unattached cells were removed and seeded at 4×10^5 per well in 2.2 cm multi-well gelatin-coated culture plates in DMEM containing 10% fetal calf serum, 100 U/ml penicillin and 100 μg/ml streptomycin. […]
Cardiomyocyte contraction was determined by microscopy. […]

ASK1 [2] = test: TNF-induced ASK1 activation in BAEC, in vitro kinase assay with GST-MKK4; format: cell-based, Bovine; settings: Nac 1 mM pretreatment, TNF-α 10 ng/ml 15 min; n=3, p<0.01
Procedure: J Immunol. 159:3508-18 (1997)) using GST-MKK4 and GST-c-Jun (1-80) fusion protein as a substrate, respectively. Briefly, total 400 μg cell lysates were immunoprecipitated with 5 μg of antibody against ASK1 or JNK1 (Santa Cruz). The immunoprecipitates were mixed with 10 μg GST-MKK4 or GST-c-Jun (1-80) suspended in the kinase buffer (20 mM Hepes, pH 7.6, 20 mM MgCl2, 25 mM β-glycerophosphate, 100 μM sodium orthovanadate, 2 mM DTT, 20 μM ATP) containing 1 μl (10 μCi) of [γ-32P] ATP. The kinase assay was performed at 25° C. for 30 min. The reaction was terminated by the addition of Laemmli sample buffer and the phosphorylated GST-MKK4 or GST-c-Jun (1-80) was visualized by autoradiography.
TNF dissociates wild type Trx but not Trx-C32S or Trx-C35Sfroin ASK1 in vivo. Trx-C32S and Trx-C35S were examiner to determine whether they constitutively bind to ASK1 in vivo. Regulation of ASK1 by Trx was first examined to determine if such regulation is ROS-dependent in EC. BAEC were either untreated or treated with N-acetyl-cysteine (Nac, 1 mM) or vehicle for 60 min prior to TNF-α (10 ng/ml) stimulation for 15 min. TNF-induced ASK1 activation was measured by an in vitro kinase assay using GST-MKK4 (JNKK1) fusion protein as a substrate. TNF activated ASK1 in EC (FIG. 5A). […] Association of ASK1 with Trx was easily detected in untreated EC cells (FIG. 5B, Ctrl). […]

ASK1 [3] = test: Association of Trx with ASK1 in vivo in BAEC (co-immunoprecipitation); format: binding, Bovine; settings: endogenous proteins, IP anti-Trx / Western anti-ASK1; Nac pretreatment then TNF
Procedure: Immunoprecipitation and immunoblotting EC after various treatments were washed twice with cold PBS and lysed in 1.5 ml of cold lysis buffer (50 mM Tris-HC, pH 7.6, 150 mM NaCl, 0.1% Triton X-100, 0.75% Brij 96, 10 μg/ml aprotinin, 10 μg/ml leupeptin, 2 mM PMSF, 1 mM EDTA) for 20 min on ice. Protein concentrations were determined with a Bio-Rad kit. For immunoprecipitation to analyze protein interaction in vivo, 400 μg of cell lysate supematant were incubated with 5 μg of the first protein-specific antiserum (e.g. anti-Trx from Medical & Biological Laboratory) for 2 h with 50 μl of GammaBind plus Sepharose. Immune complexes were collected after each immunoprecipitation by centrifugation at 14,000× g for 10 min followed by 4 washes with lysis buffer. The immune complexes were subjected to Western blot with the second protein (e.g., ASK1)-specific antibody (Santa Cruz Biotech, Santa Cruz, Calif.). The chemiluminescence was detected using an ECL kit according to the instructions of the manufacturer (Amersham Life Science, Arlington Heights, Ill.). […]
TNF dissociates wild type Trx but not Trx-C32S or Trx-C35Sfroin ASK1 in vivo. […] TNF-induced ASK1 activation was measured by an in vitro kinase assay using GST-MKK4 (JNKK1) fusion protein as a substrate. […] Association of ASK1 with Trx was easily detected in untreated EC cells (FIG. 5B, Ctrl). […]

Q: For Ac-DEVD-CHO [reference compound], which “caspase 3 activity in presence of caspase 3 inhibitor” value (caspase 3) is on record?
A: Its value is “specifically inhibited”.

Q: For `OO` [Trx H2O2, Hydrogen peroxide], which “time to complete inhibition of twitch” value (adult rat cardiomyocytes) is on record?
A: Its value is 2.38 ± 018 min.

Q: What about the “spontaneous beating of neonatal cardiomyocytes” value [1] of the same molecule?
A: Its value is “completely inhibited”.

Q: With `CC(=O)N[C@@H](CS)C(=O)O` [Nac, N-acetyl-cysteine, reference compound] as the molecule, how does the “inhibition of TNF-stimulated ASK1 activity” value (ASK1 [2]) read?
A: Its value is 70%.

Q: What about the “TNF-induced dissociation of ASK1 from Trx” value (ASK1 [3]) of the same molecule?
A: Its value is “prevented”.

— patent publication US20060148057A1, “Thioredoxin mutants and uses thereof” (priority 2002, published 2006)
